Experimental data: a melting point compilation (Tetko et al.; mined from patent text by program, amines drawn as free bases though some values may be those of a salt)

First: O=C1N(Cc2ccc(Cl)cc2)c2ccccc2C1(O)c1ccoc1 (stereo not given)
Second: O=C1CC(c2ccccc2)Nc2ccccc2N1Cc1ccccc1 (stereo not given)
The melting point of the first is lower: 128 to 130 °C for the first, 132 to 133 °C for the second.

Compared with `CN1CS(=O)c2ccccc21` (stereo not given), `Cc1cc(NCc2ccccc2)n(C)n1` is higher in melting point: 70 to 73.5 °C for the first, 95 to 97 °C for the second.

First: Cc1c(CC(=O)O)c(=O)oc2cc(O)c(O)c([N+](=O)[O-])c12
Second: CC(=O)NCC1CN(c2ccc(N3CCN(c4nc5ccc([N+](=O)[O-])cc5s4)CC3)c(F)c2)C(=O)O1 (stereo not given)
The melting point of the first is higher: greater than 350 °C for the first, 216 to 217 °C for the second.

First: CCCSc1ncc(CC(=O)O)n1Cc1ccccc1Cl
Second: CCCCN1C(=O)c2cnc(-c3ccccc3)nc2N(C(=O)CCl)c2ccccc21
The melting point of the first is lower: 68 to 71 °C for the first, 139 to 140 °C for the second.

Compared with `Cc1cc(-c2c(F)cc3c(=O)c(C(=O)O)cn4c3c2SC[C@@H]4C)cc(C)n1`, `CCOC(=O)c1cn2c3c(cc(I)cc3c1=O)OC(c1ccccn1)C2` (stereo not given) is lower in melting point: 328 to 331 °C for the first, 224 to 225 °C for the second.

First: C=Cc1ccnc(-c2cc(C)ccn2)c1
Second: Cc1nc2ccc(N3C[C@H](C(N)c4nccs4)OC3=O)cc2s1 (stereo not given in full)
The melting point of the first is lower: 82 to 86 °C for the first, 207 °C for the second.

First: NC(=O)c1sc(Oc2ccc3c(c2)OCO3)c2c1CCc1cnoc1-2
Second: O=C1N(C(c2ccccc2)c2ccccc2)c2cccc(F)c2C12COc1cc3c(cc12)OCCO3 (stereo not given)
The melting point of the first is lower: 167 to 169 °C for the first, 196 to 198 °C for the second.

First: CC(C)[C@H]1C(C(F)(F)F)OC(=O)N1Cc1ccccc1 (stereo not given in full)
Second: CSC1=NC2=NC3=C(CN2N1)C(Cc1ccccc1)CNC3=O (stereo not given)
The melting point of the first is lower: 92 to 93 °C for the first, 232 to 234 °C for the second.

First: COc1cc(C(=O)NS(=O)(=O)c2ccccc2Cl)ccc1Cc1c(Cl)n(C)c2ccc(CC3CCN(C)C3=O)cc12 (stereo not given)
Second: Cn1c(=O)c(-c2ccc(Cl)cc2Cl)cc2c3cc(-c4cnco4)ccc3n(C)c21
The melting point of the first is lower: 126 to 134 °C for the first, 170 to 174 °C for the second.

First: O=C(O)/C=C/c1ccc(OCCN2CCOCC2)cc1
Second: Clc1cccc(C2CCN(CCCOc3ccc4scnc4c3)CC2)c1Cl
The melting point of the first is higher: 228 °C for the first, 114 to 116 °C for the second.

First: CC(C)NS(=O)(=O)c1cccc(NC(=O)c2cnn3c(C(F)(F)F)cc(-c4ccc(C(F)(F)F)cc4)nc23)c1
Second: CC(C)N1CCN(Cc2cc(NC(=O)Nc3ccc(Oc4cc(Cl)ncn4)cc3)cc(C(F)(F)F)c2)CC1
The melting point of the first is higher: 222 °C for the first, 101 °C for the second.

First: COC1=CCC2=C(CCC3C2CCC2(C)C3CCC2N(C)CCCN(C)C)C1 (stereo not given)
Second: CC1(C)CC(OC(=O)c2ccccc2C(=O)OC2CC(C)(C)N(OC3CCCCC3)C(C)(C)C2)CC(C)(C)N1OC1CCCCC1
The melting point of the first is lower: 78 to 80 °C for the first, 149 to 151 °C for the second.

First: OC(CCCc1ccccc1)c1ccc(OCc2ccc3ccccc3n2)cc1 (stereo not given)
Second: COc1ccc(N(Cc2cccc3ccccc23)c2ccccc2)cc1
The melting point of the first is lower: 118 to 119 °C for the first, 154 to 159 °C for the second.

First: CNCC(C(=O)O)c1ccc(O)cc1 (stereo not given)
Second: COC(=O)C(O)C(NCc1ccccc1)c1ccc([N+](=O)[O-])cc1 (stereo not given)
The melting point of the first is higher: 218 to 221 °C for the first, 147 to 149 °C for the second.

Compared with `CCN1CCNC(=O)c2ccc(Nc3ncc(Cl)c(Nc4ccccc4C(=O)NC)n3)cc21`, `Cc1nc(N2CCCC(Cc3cccnc3)C2=O)sc1C(=O)NCc1ccccc1` (stereo not given) is lower in melting point: 168 to 171 °C for the first, 140 to 141 °C for the second.

Compared with `CN1C(=S)NN2CCCC21c1ccc(Cl)cc1` (stereo not given), `O=C(C=C1OC(=O)c2ccccc21)c1ccc(Cl)cc1` is lower in melting point: 159 to 161 °C for the first, 158 to 159 °C for the second.

First: CCCOc1ccc(S(C)(=O)=O)cc1-c1nc2c(CC)n[nH]c2c(=O)[nH]1
Second: Cc1nc2ccc(S(=O)(=O)n3c(CCCC(=O)O)cc4nc(Cl)ccc43)cc2s1
The melting point of the first is higher: 276 to 277 °C for the first, 184 °C for the second.

Compared with `CC(C)C[C@H](NC(=O)OC(C)(C)C)[C@H](O)c1nccs1`, `CSCC[C@@H](NC(=O)OC(C)(C)C)C(=O)NCC(=O)O` is higher in melting point: 121 to 122 °C for the first, 124 to 126 °C for the second.

Compared with `COCCOc1ccc2[nH]c(=O)n(C3CCCCC3)c2c1`, `COc1ccc(C(C)(O)Cn2cc[nH]c2=O)cc1OC1CCCC1` (stereo not given) is lower in melting point: 182 °C for the first, 136 °C for the second.

First: O=C1c2cc(C(=O)N3CCCCC3)ccc2-c2ccc(C(=O)N3CCCCC3)cc21
Second: O=C(O)C1CCc2c(c3cccc(F)c3n2C(=O)c2ccccc2)C1 (stereo not given)
The melting point of the first is lower: 94.5 to 95.5 °C for the first, 250 to 251 °C for the second.

First: Cc1cccc2[nH]c3c4c(Cl)cccc4nc-3cc12
Second: Cc1cc(Cl)ccc1NC(=N)Nc1ncccc1OCc1c(F)cccc1Cl
The melting point of the first is higher: 170 to 172 °C for the first, 155 to 156 °C for the second.

Compared with `CC1CNCCNCCNCCNCCN1` (stereo not given), `CCN1CCc2nc(Nc3cc(-c4cc(F)cc(C5NCCc6c5sc5c6CC(C)(C)C5)c4CO)cn(C)c3=O)ccc2C1` (stereo not given) is higher in melting point: 73 to 75 °C for the first, 134 to 135 °C for the second.

First: O=C(Cc1ccccc1)Nc1ccc(NC(=O)OCc2ccccc2)c(O)c1
Second: CC(C)n1nc(-c2sc(NC(=O)c3ccc4ccccc4c3)nc2-c2ccccc2)ccc1=O
The melting point of the first is higher: 252 °C for the first, 227 to 229 °C for the second.

First: O=C(Cl)N1CC(Oc2cccc(C(F)(F)F)c2)C1
Second: Cc1cc(Oc2ncc(C(F)(F)F)cc2Cl)nn1C(=O)N(C)C
The melting point of the first is lower: 72.5 to 74 °C for the first, 102 to 104 °C for the second.

First: C#CCN1C(=O)CCc2cc(F)c(-n3nc4ccc(Cl)cn4c3=O)cc21
Second: Cc1cccc(COc2cccc(OCc3ccc4ccc(Cl)cc4n3)c2)c1C(=O)O
The melting point of the first is higher: 200 to 202 °C for the first, 188 to 193 °C for the second.

First: COC(=O)c1ncccc1NC(=O)C(C)CS (stereo not given)
Second: COC(=O)c1cc(N)ccc1O
The melting point of the first is lower: 55 to 56 °C for the first, 93 to 95 °C for the second.

Compared with `COc1ccc(C=C(C#N)c2ccc(F)cc2)cc1OC1CCCC1`, `O=C(Nc1ccccn1)C(CC1CCCC1)c1ccc(S(=O)(=O)C(F)(F)F)cc1` (stereo not given) is lower in melting point: 139 to 141 °C for the first, 58 to 62 °C for the second.

First: Cn1cccc1C(=O)NCCO
Second: CCN(CC)CCNC(C(=O)NC(C)(C)C)c1ccccc1 (stereo not given)
The melting point of the first is higher: 78.1 °C for the first, 50 to 52 °C for the second.

`OC1(c2cccn2Cc2ccccc2F)CCN(CCCc2noc3cc(F)ccc23)CC1` and `O=C1C(c2ccc(O)cc2)=C(c2ccccc2)c2ccc(O)cc21` cannot be ordered by melting point: 100 to 104 °C for the first, 100 to 110 °C for the second.

Compared with `CC(C)n1cnc2c(NCc3cccc(O)c3O)nc(NC[C@@H](C)O)nc21`, `CN(CCOc1cccc2cc(S(=O)(=O)c3ccccc3)n(C(=O)OC(C)(C)C)c12)C(=O)OC(C)(C)C` is lower in melting point: 182 to 183 °C for the first, 118 to 120 °C for the second.

First: Cc1c(-c2ccccc2Cl)n(-c2ccccc2Cl)c(-c2ccccc2Cl)cc1=O
Second: CCOC(=O)CN(C(=O)CN1C(=O)c2ccccc2C1=O)c1ccc(Cl)c(COc2cccc3ccc(C)nc23)c1Cl
The melting point of the first is lower: 205 to 207 °C for the first, 211 to 213 °C for the second.

First: O=c1[nH]c2cccnc2o1
Second: O=C1CNN=C(c2ccccn2)N1
The melting point of the first is higher: 252 °C for the first, 138 to 139 °C for the second.

First: CCCC(Oc1cc(OC)ccc1C(=O)c1ccc(OCc2nc(-c3ccccc3)oc2C)cc1)C(=O)O (stereo not given)
Second: CCCCN(CCCC)CCCOc1ccc(S(=O)(=O)c2ncsc2-c2ccccc2)cc1
The melting point of the first is higher: 139 to 140 °C for the first, 110 °C for the second.

Going from `CCOc1nc(Br)cnc1N` to `CCOc1cc(C(F)(F)F)sc1C(=O)OC`, the melting point rises from 84 °C to 93.6 °C.

First: CCOC(OCC)c1ncn(C(c2ccccc2)(c2ccccc2)c2ccccc2)n1
Second: CCOC(C)c1cc2c(=O)n(NS(C)(=O)=O)c(=O)[nH]c2cc1C(F)(F)F (stereo not given)
The melting point of the first is higher: 120 to 124 °C for the first, 105 to 112 °C for the second.
